Laboratory results published in patent US8969360B2, “Compounds useful as inhibitors of ATR kinase” (Vertex Pharmaceuticals Incorporated, priority 2013, dated 2015).

Assays:
[1] = biological target: T1, ATR kinase (Homo sapiens, UniProt Q13535); assay: ATR Inhibition Assay (radioactive-phosphate incorporation); type: biochemical; details: Ki(app); 5 nM full-length ATR, 10 μM ATP, 800 μM target peptide, 25° C.
T1 construct: Assays were carried out at 25° C. in the presence of 5 nM full-length ATR
T1 sequence (Q13535 whole entry): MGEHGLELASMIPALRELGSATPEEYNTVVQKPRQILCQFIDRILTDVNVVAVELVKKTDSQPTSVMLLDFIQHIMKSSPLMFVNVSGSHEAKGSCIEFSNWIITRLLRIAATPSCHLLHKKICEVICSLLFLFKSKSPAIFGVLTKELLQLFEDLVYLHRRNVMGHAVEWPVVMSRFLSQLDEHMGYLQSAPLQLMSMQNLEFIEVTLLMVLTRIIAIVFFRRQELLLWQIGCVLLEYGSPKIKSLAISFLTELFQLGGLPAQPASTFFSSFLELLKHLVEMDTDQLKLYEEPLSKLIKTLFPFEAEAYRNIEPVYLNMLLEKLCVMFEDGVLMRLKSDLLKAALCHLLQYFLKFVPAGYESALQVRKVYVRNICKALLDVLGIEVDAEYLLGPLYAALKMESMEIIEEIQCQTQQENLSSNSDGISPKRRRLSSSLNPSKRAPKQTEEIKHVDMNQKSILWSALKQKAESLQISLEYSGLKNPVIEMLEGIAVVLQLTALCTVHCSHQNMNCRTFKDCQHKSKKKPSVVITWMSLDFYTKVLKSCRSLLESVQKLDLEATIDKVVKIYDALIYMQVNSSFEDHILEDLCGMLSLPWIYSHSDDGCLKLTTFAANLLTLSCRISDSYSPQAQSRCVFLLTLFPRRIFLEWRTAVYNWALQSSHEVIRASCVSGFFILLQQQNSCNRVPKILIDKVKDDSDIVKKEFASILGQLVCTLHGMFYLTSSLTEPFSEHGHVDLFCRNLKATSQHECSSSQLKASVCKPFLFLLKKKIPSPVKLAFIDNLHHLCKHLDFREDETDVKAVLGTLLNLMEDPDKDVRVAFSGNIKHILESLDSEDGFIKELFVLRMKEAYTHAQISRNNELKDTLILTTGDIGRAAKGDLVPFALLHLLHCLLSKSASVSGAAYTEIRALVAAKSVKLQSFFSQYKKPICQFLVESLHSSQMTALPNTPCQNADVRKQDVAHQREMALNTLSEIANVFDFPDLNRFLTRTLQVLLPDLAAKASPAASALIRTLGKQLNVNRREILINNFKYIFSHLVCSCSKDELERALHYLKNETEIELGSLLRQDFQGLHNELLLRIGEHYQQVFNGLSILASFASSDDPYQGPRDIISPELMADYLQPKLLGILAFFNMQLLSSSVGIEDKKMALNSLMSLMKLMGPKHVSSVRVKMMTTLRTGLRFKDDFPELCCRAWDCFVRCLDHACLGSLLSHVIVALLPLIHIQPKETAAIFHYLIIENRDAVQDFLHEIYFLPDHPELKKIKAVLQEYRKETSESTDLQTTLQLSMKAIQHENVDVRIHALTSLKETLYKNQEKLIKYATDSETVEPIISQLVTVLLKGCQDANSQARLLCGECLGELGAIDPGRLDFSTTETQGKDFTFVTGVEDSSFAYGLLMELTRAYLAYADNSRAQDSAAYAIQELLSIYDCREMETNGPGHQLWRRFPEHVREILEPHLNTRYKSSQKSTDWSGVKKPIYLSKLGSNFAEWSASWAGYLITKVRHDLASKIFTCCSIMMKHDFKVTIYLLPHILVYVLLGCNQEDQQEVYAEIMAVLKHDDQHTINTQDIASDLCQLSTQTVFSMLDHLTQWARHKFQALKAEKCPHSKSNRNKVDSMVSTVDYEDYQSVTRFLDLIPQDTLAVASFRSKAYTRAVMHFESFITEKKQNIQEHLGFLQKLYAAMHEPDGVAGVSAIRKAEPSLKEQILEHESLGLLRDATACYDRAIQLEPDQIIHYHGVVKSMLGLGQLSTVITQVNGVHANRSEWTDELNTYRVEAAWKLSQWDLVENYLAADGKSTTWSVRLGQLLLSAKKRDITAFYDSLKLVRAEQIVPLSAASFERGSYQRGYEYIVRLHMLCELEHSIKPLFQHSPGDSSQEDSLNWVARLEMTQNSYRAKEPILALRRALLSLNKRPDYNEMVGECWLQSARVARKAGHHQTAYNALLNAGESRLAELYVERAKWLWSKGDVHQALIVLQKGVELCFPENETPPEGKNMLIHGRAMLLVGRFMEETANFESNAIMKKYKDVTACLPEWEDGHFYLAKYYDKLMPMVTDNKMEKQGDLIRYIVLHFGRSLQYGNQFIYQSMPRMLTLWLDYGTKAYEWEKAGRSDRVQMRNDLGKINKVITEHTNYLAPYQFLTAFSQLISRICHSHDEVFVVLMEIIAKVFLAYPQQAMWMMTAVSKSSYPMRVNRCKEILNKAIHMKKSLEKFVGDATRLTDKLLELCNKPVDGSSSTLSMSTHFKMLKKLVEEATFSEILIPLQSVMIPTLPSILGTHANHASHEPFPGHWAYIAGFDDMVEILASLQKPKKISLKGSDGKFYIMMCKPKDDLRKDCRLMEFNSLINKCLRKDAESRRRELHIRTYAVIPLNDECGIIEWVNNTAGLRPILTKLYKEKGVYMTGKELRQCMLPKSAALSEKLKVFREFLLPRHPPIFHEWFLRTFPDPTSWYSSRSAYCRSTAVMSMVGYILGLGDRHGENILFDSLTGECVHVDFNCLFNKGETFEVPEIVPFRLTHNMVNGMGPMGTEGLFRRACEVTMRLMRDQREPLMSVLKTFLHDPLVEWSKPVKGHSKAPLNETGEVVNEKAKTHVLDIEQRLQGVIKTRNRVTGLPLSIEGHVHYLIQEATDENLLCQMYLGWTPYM
Procedure: Compounds were screened for their ability to inhibit ATR kinase using a radioactive-phosphate incorporation assay. Assays were carried out in a mixture of 50 mM Tris/HCl (pH 7.5), 10 mM MgCl2 and 1 mM DTT. Final substrate concentrations were 10 μM [γ-33P]ATP (3 mCi 33P ATP/mmol ATP, Perkin Elmer) and 800 μM target peptide (ASELPASQPQPFSAKKK (SEQ. ID NO: 1)).
Assays were carried out at 25° C. in the presence of 5 nM full-length ATR. An assay stock buffer solution was prepared containing all of the reagents listed above, with the exception of ATP and the test compound of interest. 13.5 μL of the stock solution was placed in a 96 well plate followed by addition of 2 μL of DMSO stock containing serial dilutions of the test compound (typically starting from a final concentration of 15 μM with 3-fold serial dilutions) in duplicate (final DMSO concentration 7%). The plate was pre-incubated for 10 minutes at 25° C. and the reaction initiated by addition of 15 μL [γ-33P]ATP (final concentration 10 μM).
The reaction was stopped after […] by the addition of 30 μL, 0.1M phosphoric acid containing 2 mM ATP. A multiscreen phosphocellulose filter 96-well plate (Millipore, Cat no. MAPHN0B50) was pretreated with 100 μL 0.2M phosphoric acid prior to the addition of 45 μL of the stopped assay mixture. The plate was washed with 5×200 μL 0.2M phosphoric acid. After drying, 100 μL Optiphase ‘SuperMix’ liquid scintillation cocktail (Perkin Elmer) was added to the well prior to scintillation counting (1450 Microbeta Liquid Scintillation Counter, Wallac).
After removing mean background values for all of the data points, Ki(app) data were calculated from non-linear regression analysis of the initial rate data using the Prism software package (GraphPad Prism version 3.0cx for Macintosh, GraphPad Software, San Diego Calif., USA).
Compounds with a Ki value of <0.01 μM are marked with “+++.” Compounds with a Ki value >0.01 μM but <1 μM are marked with “++.” Compounds with a Ki value >1 μM but <5 μM are marked with “+.”

[2] = test system: HCT116 colorectal cancer cells; assay: Cisplatin Sensitization Assay (96 h cell viability MTS); type: cell-based; details: concentration of compound required to reduce the IC50 of Cisplatin alone by at least 3-fold; HCT116, 96 h MTS
Procedure: Compounds can be screened for their ability to sensitize HCT116 colorectal cancer cells to Cisplatin using a 96 h cell viability (MTS) assay. […] Compounds and Cisplatin are then both added simultaneously to the cell media in 2-fold serial dilutions from a top final concentration of 10 μM as a full matrix of concentrations in a final cell volume of 200 μl, and the cells are then incubated at 37° C. in 5% CO2. After 96 h, 40 μl of MTS reagent (Promega G358a) is added to each well and the cells are incubated for 1 h at 37° C. in 5% CO2. Finally, absorbance is measured at 490 nm using a SpectraMax Plus 384 reader (Molecular Devices) and the concentration of compound required to reduce the IC50 of Cisplatin alone by at least 3-fold (to 1 decimal place) can be reported.
Compounds with a Cisplatin sensitization value of <0.02 μM are marked with “+++.” Compounds with a Cisplatin sensitization value>0.02 μM but <0.2 μM are marked with “++.” Compounds with a Cisplatin sensitization value >0.2 μM but <5 μM are marked with “+.”

Row | Structure (SMILES) | Ki [1] [µM] | Synergy with Cisplatin [2]
1 | Nc1nn2ccc(C(F)(F)F)nc2c1C(=O)Nc1cnccc1Oc1cccnc1 [I-O-15, 2-amino-N-(4-(pyridin-3-yloxy)pyridin-3-yl)-5-(trifluoromethyl)pyrazolo[1,5-a]pyrimidine-3-carboxamide] | < 0.01 | +++ (Compounds with a Cisplatin sensitization value of <0.02 μM are marked with “+++.”)
2 | Nc1nn2ccc(C(F)(F)F)nc2c1C(=O)Nc1cnccc1Oc1ccncc1 [I-O-16, 2-amino-N-(4-(pyridin-4-yloxy)pyridin-3-yl)-5-(trifluoromethyl)pyrazolo[1,5-a]pyrimidine-3-carboxamide] | 0.01 to 1 | + (Compounds with a Cisplatin sensitization value >0.2 μM but <5 μM are marked with “+.”)
3 | CN1CC[C@@H](Oc2ccncc2NC(=O)c2c(N)nn3ccc(C(F)(F)F)nc23)C1 [I-O-19, (R)-2-amino-N-(4-((1-methylpyrrolidin-3-yl)oxy)pyridin-3-yl)-5-(trifluoromethyl)pyrazolo[1,5-a]pyrimidine-3-carboxamide] | 0.01 to 1 | ++ (Compounds with a Cisplatin sensitization value>0.02 μM but <0.2 μM are marked with “++.”)
4 | Nc1nn2ccc(C(F)(F)F)nc2c1C(=O)Nc1cnccc1O[C@H]1CCNC1 [I-O-21, (S)-2-amino-N-(4-(pyrrolidin-3-yloxy)pyridin-3-yl)-5-(trifluoromethyl)pyrazolo[1,5-a]pyrimidine-3-carboxamide] | 0.01 to 1 | ++ (Compounds with a Cisplatin sensitization value>0.02 μM but <0.2 μM are marked with “++.”)
5 | Nc1nn2ccc(C(F)(F)F)nc2c1C(=O)Nc1cnccc1OC1CC2(CCN2)C1 (centres unmarked) [I-O-22, N-(4-((4s,6r)-1-azaspiro[3.3]heptan-6-yloxy)pyridin-3-yl)-2-amino-5-(trifluoromethyl)pyrazolo[1,5-a]pyrimidine-3-carboxamide] | 0.01 to 1 | ++ (Compounds with a Cisplatin sensitization value>0.02 μM but <0.2 μM are marked with “++.”)
6 | Nc1nn2ccc(C(F)(F)F)nc2c1C(=O)Nc1cnccc1OC1CCCNC1 (centres unmarked) [I-O-23, 2-amino-N-(4-(piperidin-3-yloxy)pyridin-3-yl)-5-(trifluoromethyl)pyrazolo[1,5-a]pyrimidine-3-carboxamide] | 0.01 to 1 | ++ (Compounds with a Cisplatin sensitization value>0.02 μM but <0.2 μM are marked with “++.”)
7 | Nc1nn2ccc(C(F)(F)F)nc2c1C(=O)Nc1cnccc1OC1CC2(CCN2)C1 (centres unmarked) [I-O-24, N-(4-((4r,6s)-1-azaspiro[3.3]heptan-6-yloxy)pyridin-3-yl)-2-amino-5-(trifluoromethyl)pyrazolo[1,5-a]pyrimidine-3-carboxamide] | 0.01 to 1 | +++ (Compounds with a Cisplatin sensitization value of <0.02 μM are marked with “+++.”)
8 | Nc1nn2ccc(C(F)(F)F)nc2c1C(=O)Nc1cnccc1O[C@@H]1CCNC1 [I-O-25, (R)-2-amino-N-(4-(pyrrolidin-3-yloxy)pyridin-3-yl)-5-(trifluoromethyl)pyrazolo[1,5-a]pyrimidine-3-carboxamide] | 0.01 to 1 | ++ (Compounds with a Cisplatin sensitization value>0.02 μM but <0.2 μM are marked with “++.”)
9 | CN1CCCC(Oc2ccncc2NC(=O)c2c(N)nn3ccc(C(F)(F)F)nc23)C1 (centres unmarked) [I-O-26, 2-amino-N-(4-((1-methylpiperidin-3-yl)oxy)pyridin-3-yl)-5-(trifluoromethyl)pyrazolo[1,5-a]pyrimidine-3-carboxamide] | 0.01 to 1 | +++ (Compounds with a Cisplatin sensitization value of <0.02 μM are marked with “+++.”)
10 | CN1CCC[C@@H]1COc1ccncc1NC(=O)c1c(N)nn2ccc(C(F)(F)F)nc12 [I-O-28, (R)-2-amino-N-(4-((1-methylpyrrolidin-2-yl)methoxy)pyridin-3-yl)-5-(trifluoromethyl)pyrazolo[1,5-a]pyrimidine-3-carboxamide] | 0.01 to 1 | ++ (Compounds with a Cisplatin sensitization value>0.02 μM but <0.2 μM are marked with “++.”)
11 | CN(C)[C@H]1CC[C@@H](Oc2ccncc2NC(=O)c2c(N)nn3ccc(C(F)(F)F)nc23)CC1 [I-O-30, 2-amino-N-(4-(((1s,4s)-4-(dimethylamino)cyclohexyl)oxy)pyridin-3-yl)-5-(trifluoromethyl)pyrazolo[1,5-a]pyrimidine-3-carboxamide] | 0.01 to 1 | +++ (Compounds with a Cisplatin sensitization value of <0.02 μM are marked with “+++.”)
12 | CN1CCC(Oc2ccncc2NC(=O)c2c(N)nn3ccc(C(F)(F)F)nc23)CC1 [I-O-31, 2-amino-N-(4-((1-methylpiperidin-4-yl)oxy)pyridin-3-yl)-5-(trifluoromethyl)pyrazolo[1,5-a]pyrimidine-3-carboxamide] | 0.01 to 1 | ++ (Compounds with a Cisplatin sensitization value>0.02 μM but <0.2 μM are marked with “++.”)
13 | Nc1nn2ccc(C(F)(F)F)nc2c1C(=O)Nc1cnccc1OC1CC2(CNC2)C1 [I-O-32, N-(4-(2-azaspiro[3.3]heptan-6-yloxy)pyridin-3-yl)-2-amino-5-(trifluoromethyl)pyrazolo[1,5-a]pyrimidine-3-carboxamide] | 0.01 to 1 | ++ (Compounds with a Cisplatin sensitization value>0.02 μM but <0.2 μM are marked with “++.”)

More lines, main results first:

Row | Ki [1] [µM] | Structure (SMILES) | Synergy with Cisplatin [2]
14 | < 0.01 | Nc1nn2ccc(C(F)(F)F)nc2c1C(=O)Nc1cnccc1OCCO [I-O-13, 2-amino-N-(4-(2-hydroxyethoxy)pyridin-3-yl)-5-(trifluoromethyl)pyrazolo[1,5-a]pyrimidine-3-carboxamide] | +++ (Compounds with a Cisplatin sensitization value of <0.02 μM are marked with “+++.”)
15 | < 0.01 | Nc1nn2ccc(C(F)(F)F)nc2c1C(=O)Nc1cnccc1OCCCO [I-O-14, 2-amino-N-(4-(3-hydroxypropoxy)pyridin-3-yl)-5-(trifluoromethyl)pyrazolo[1,5-a]pyrimidine-3-carboxamide] | +++ (Compounds with a Cisplatin sensitization value of <0.02 μM are marked with “+++.”)
16 | 0.01 to 1 | CN(C)CCOc1ccncc1NC(=O)c1c(N)nn2ccc(C(F)(F)F)nc12 [I-O-17, 2-amino-N-(4-(2-(dimethylamino)ethoxy)pyridin-3-yl)-5-(trifluoromethyl)pyrazolo[1,5-a]pyrimidine-3-carboxamide] | ++ (Compounds with a Cisplatin sensitization value>0.02 μM but <0.2 μM are marked with “++.”)
17 | 0.01 to 1 | Nc1nn2ccc(C(F)(F)F)nc2c1C(=O)Nc1cnccc1OC1CNC1 [I-O-18, 2-amino-N-(4-(azetidin-3-yloxy)pyridin-3-yl)-5-(trifluoromethyl)pyrazolo[1,5-a]pyrimidine-3-carboxamide] | ++ (Compounds with a Cisplatin sensitization value>0.02 μM but <0.2 μM are marked with “++.”)
18 | 0.01 to 1 | Nc1nn2ccc(C(F)(F)F)nc2c1C(=O)Nc1cnccc1OCCN1CCOCC1 [I-O-20, 2-amino-N-(4-(2-morpholinoethoxy)pyridin-3-yl)-5-(trifluoromethyl)pyrazolo[1,5-a]pyrimidine-3-carboxamide] | ++ (Compounds with a Cisplatin sensitization value>0.02 μM but <0.2 μM are marked with “++.”)
19 | 0.01 to 1 | CN(C)CCCOc1ccncc1NC(=O)c1c(N)nn2ccc(C(F)(F)F)nc12 [I-O-27, 2-amino-N-(4-(3-(dimethylamino)propoxy)pyridin-3-yl)-5-(trifluoromethyl)pyrazolo[1,5-a]pyrimidine-3-carboxamide] | ++ (Compounds with a Cisplatin sensitization value>0.02 μM but <0.2 μM are marked with “++.”)
